Assay results from patent publication US8722052B2, “Vaccinia virus protein A46 peptide and use thereof” (priority 2008, dated 2014).
Entries after “also recorded” stand apart in the source; their conditions may differ. Where two headings read alike, the source gives them in different places.

What was measured:
TLR4 [1] = format: cell-based, human; details: THP-1; for inhibition of LPS-induced TNFα production: 6 h
TLR4 [2] = assay: LPS-induced TNFα in PMA-differentiated U937 cells, ELISA; format: cell-based, human; details: peptide 5 or 20 μM 1 h before 100 ng/ml LPS, 24 h
Protocol: FIGS. 3A and B are bar charts showing the effect of peptides derived from A46 on LPS-induced TNFα in human U937 cells. Cells were differentiated with 200 nM PMA and seeded in 96 well plates (2×10^5 cells/ml) 24 hours before treatment. A46 peptides were added to the cells at a concentration of 5 or 20 μM 1 hour before stimulating with 100 ng/ml LPS. Supernatants were collected 24 hours after stimulation and assayed for TNFα by ELISA. No peptides were added into the control wells (black bars). (A) peptides A461-A467 (SEQ ID NO. 17 to 23). (B) peptides A468-A4614 (SEQ ID NO. 24 to 30) (excluding A4612 SEQ ID NO. 28). Data is representative of at least two experiments each performed in triplicate and is expressed as mean±s.d;
Cytokine and chemokine production from cells or mouse serum was measured by ELISA using Duoset kits from R&D systems, according to the manufacturer's instructions.
LPS is a component of a cell wall of Gram-negative bacteria which is recognised by a homodimer of TLR4 and signals to NFκB via both a MyD88- and TRIF-dependent pathway (O'Neill and Bowie, 2007). In order to examine the effect of the peptides on TLR4-dependent gene induction in human cells, the human monocytic lymphoma cell line U937 was used. U937 cells were differentiated into macrophages by treatment with 200 nM PMA for 24 hours before any further manipulations. […]

IκBα = assay: LPS-induced IκBα degradation in RAW264.7 cells, immunoblot; format: cell-based, murine; details: peptide 4 μM 1 h before 10 ng/ml LPS for 5, 15, 30 or 60 min
Protocol: FIGS. 25A and B are immunoblots showing the effect of A464 on LPS-induced IκBα degradation in murine RAW264.7 cells. Cells were seeded in 6-well plates at 1.5×10^5 cells/ml 24 hours prior to treatment with peptides. […] Cells were stimulated with 10 ng/ml LPS for a period of 5, 15, 30 or 60 min and then harvested on ice and lysed in 1% NP-40 containing lysis buffer. Lysates then were denatured using 5× sample buffer with DTT and resolved by SDS-PAGE. The proteins were transferred to PVDF membrane and the membrane was immunoblotted for IκBα (A). Equal protein loading was confirmed by re-probing the blot for β-actin (B). The blots shown are representative of two experiments;
RAW264.7 cells were seeded at a density of 1×10^5 cells/ml in 6 well plates. […] The protein concentration was determined by monitoring the change in the solution absorbance at 280 nm using a spectrophotometer compared to protein standards. […] Thereafter, the membranes were washed, incubated in appropriate secondary antibody and then developed using standard enhanced chemi-luminescence (ECL) reagents.
To further assay activation of NFκB, the degradation of its inhibitor IκBα, an event required for the translocation of the NFκB into the nucleus, was measured. […]

cell viability = assay: MTT cell viability assay, more detailed investigation of screening hits; format: cell-based; details: cell type not stated
Protocol: Cell viability was measured by assessing mitochondrial function using an MTT (3-(4,5-Dimethylthiazol-2-yl)-2,5-diphenyltetrazolium bromide) assay. Cells were seeded into 96 well plates and treated with peptides and agonists as described above in relation to the Figs. Wells containing medium only served as a blank control. To terminate treatment of cells, medium was removed and the cells were washed once with PBS. 200 μl per well of 1 mg/ml MTT in PBS was added directly to the cells and the plates were incubated at 37° C. for 14-16 hrs in the dark. MTT was then removed and 200 μl per well of dimethyl sulphoxide (DMSO) was added and cells incubated for 20 min at 37° C. in the dark, prior to absorbance being read at 595 nm on a spectrophotometer.

Chain of TLR4 (O00206 24-839): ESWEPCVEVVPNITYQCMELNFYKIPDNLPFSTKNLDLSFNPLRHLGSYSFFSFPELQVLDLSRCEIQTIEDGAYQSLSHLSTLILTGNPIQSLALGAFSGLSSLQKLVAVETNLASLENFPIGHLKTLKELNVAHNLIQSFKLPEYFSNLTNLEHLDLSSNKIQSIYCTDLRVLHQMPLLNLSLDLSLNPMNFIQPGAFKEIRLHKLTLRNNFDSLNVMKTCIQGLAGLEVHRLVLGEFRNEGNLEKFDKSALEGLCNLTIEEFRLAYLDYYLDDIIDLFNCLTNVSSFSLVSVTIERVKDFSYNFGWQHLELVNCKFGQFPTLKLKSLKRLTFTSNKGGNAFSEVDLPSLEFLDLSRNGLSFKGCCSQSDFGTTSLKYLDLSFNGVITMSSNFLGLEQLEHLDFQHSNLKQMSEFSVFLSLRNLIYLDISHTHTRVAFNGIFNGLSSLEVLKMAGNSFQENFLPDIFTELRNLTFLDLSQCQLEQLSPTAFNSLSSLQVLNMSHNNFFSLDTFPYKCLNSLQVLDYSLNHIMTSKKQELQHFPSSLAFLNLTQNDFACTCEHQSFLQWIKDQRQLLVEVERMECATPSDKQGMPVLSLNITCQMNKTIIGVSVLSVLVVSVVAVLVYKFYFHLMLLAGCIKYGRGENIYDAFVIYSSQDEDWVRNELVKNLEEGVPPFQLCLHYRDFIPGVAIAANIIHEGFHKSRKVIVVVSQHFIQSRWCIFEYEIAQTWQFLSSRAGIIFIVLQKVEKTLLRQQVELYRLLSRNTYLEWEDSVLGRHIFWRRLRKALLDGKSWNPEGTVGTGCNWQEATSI
Chain of TLR4 (Q9Y6Y9 17-160 partner limits assumed): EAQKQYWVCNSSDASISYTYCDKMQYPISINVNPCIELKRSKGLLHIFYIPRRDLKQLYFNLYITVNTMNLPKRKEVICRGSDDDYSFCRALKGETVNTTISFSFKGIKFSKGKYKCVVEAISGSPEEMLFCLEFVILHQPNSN

KYSFKLILAEYRRRRRRRRR [Peptide A464] was tested, and the “inhibition of LPS-induced hTNFα production, peptide added after LPS” value (TLR4 [1]; 5 and 10 μM peptide added 1 hour after LPS stimulation) was “almost completely inhibited”, the “inhibition of LPS-induced TNFα production” value (TLR4 [1]; peptide 5 or 10 μM 1 h before 10 ng/ml LPS) was “complete inhibition of TLR4 was achieved at 5 and 10 μM” and the “inhibition of LPS-induced TNFα production” value (TLR4 [1]; peptide 20 or 40 μM 1 h before 100 ng/ml LPS) was 20 μM A464 (SEQ ID No. 20) inhibited TLR4-mediated TNFα production. For the same sequence, the “inhibition of LPS (TLR4)-induced TNFα production” value (TLR4 [2]) was “potently inhibit TLR4-mediated TNFα production; also recorded: very potent inhibitory effect”, the “effect on LPS-induced IκBα degradation” value (IκBα) was “blocked the degradation of IκBα seen at 15 and 30 min” and the “cell viability (MTT assay)” value (cell viability) was “less toxic”.
